What was measured:
Type in all cases: biochemical
FXIIa = biological target: T1, FXIIa (Homo sapiens, UniProt P00748); test: Determination of Factor XIIa inhibition, chromogenic substrate S-2302 assay; details: human FXIIa alpha
T1 sequence (P00748 373-615 limits assumed): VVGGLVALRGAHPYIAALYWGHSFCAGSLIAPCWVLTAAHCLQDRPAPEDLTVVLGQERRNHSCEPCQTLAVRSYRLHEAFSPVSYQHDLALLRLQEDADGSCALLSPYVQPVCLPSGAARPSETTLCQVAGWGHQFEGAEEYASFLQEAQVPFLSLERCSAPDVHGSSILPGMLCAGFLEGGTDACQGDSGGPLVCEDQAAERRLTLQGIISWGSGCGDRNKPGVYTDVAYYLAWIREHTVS
T1 sequence (P00748 20-372 partner limits assumed): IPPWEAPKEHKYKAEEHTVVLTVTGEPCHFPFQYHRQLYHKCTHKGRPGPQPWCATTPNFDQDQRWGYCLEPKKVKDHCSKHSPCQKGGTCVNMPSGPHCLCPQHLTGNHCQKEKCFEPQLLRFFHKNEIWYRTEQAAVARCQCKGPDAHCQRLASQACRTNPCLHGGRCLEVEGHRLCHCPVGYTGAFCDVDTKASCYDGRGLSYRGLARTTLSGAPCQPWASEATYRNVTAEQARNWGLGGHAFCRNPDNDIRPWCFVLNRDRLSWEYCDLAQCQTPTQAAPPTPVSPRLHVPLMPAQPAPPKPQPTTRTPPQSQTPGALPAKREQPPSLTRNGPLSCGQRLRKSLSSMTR
Experimental: (§1) The activities of the compounds of the invention have been determined in vitro using the following assays protocols for the screening of activity of FXIIa and other proteases. Each of these assays were performed in a purified system employing the use of chromogenic assays in microplate plate wells. Chromogenic peptide substrates mimicking natural protein substrates are attached via an amide bond to a chromogenic group. Paranitroaniline (pNA) is released from the peptide following catalyses by the proteolytic enzyme; the absorbance increases and can be monitored at 405 nm.
(§2) All compounds were dissolved in 100% (v/v) DMSO to a stock concentration of 10 mM, the highest concentration of compound used in each assay is 500 μM. The final concentrations of DMSO were 5% (v/v) in 50 mM Tris 137 mM NaC pH 7.4. Where no test compound was added a final concentration of 5% DMSO was employed.
Determination of Factor XIa Inhibition
Factor XIa activity was measured using a chromogenic substrate S-2302 (Chromogenix). Various concentrations of compound were incubated with 10 nM of FXIIa and incubated at 37° C. for 10 minutes in 50 mM Tris, 137 mM NaCl, pH 7.4, prior to the addition of a final concentration of 450 µM S-2302 chromogenic substrate. Kinetic readings at 405 nm were monitored every 12 secs for a total duration of 3 hours at 37° C. Gradients of initial rates were determined and employed to calculate IC50 values. Values of IC50 were converted to Ki values based on the formula: Ki=IC50/(1+[Substrate]/Km).
The activity of the compounds of the invention has been categorised based on the Ki values, the categories being “*”, “**” and “***”. […] The category “**” refers to compounds with a Ki value of 0.2 μM to 2 μM.

thrombin = biological target: T2, thrombin (Homo sapiens, UniProt P00734); test: Determination of selectivity: thrombin inhibition, chromogenic substrate GPR assay; details: fold selectivity for FXIIa over thrombin
T2 construct: FXa (5 nM) and thrombin (5 nM)
Experimental: as §1, §2
(§3) Determination of Selectivity
(§4) To determine selectivity of test compounds, these test compounds were assayed for inhibitory activity against other serine proteases including FXa and thrombin. Essentially compounds at increasing concentrations were incubated with each enzyme: FXa (5 nM) and thrombin (5 nM), for 10 mins at 37° C. followed the appropriate chromogenic substrate, S2765 ([…]), and GPR ([…]) respectively in 50 mM Tris, 137 mM NaCl, pH 7.4. Chromogenic substrates S2765 was from Chromogenix, and GPR from Bachem. Kinetic readings at 405 nm were monitored every 12 secs for a total duration of 3 hours at 37° C. Gradients of initial rates were determined and employed to calculate IC50 values. Values of IC50 were converted to Ki values based on the formula: Ki=IC50/(1+[Substrate]/Km)
(§5) Where [Substrate] denotes the concentration of substrate used in the assay and Km is the determined value of each enzyme with its own substrate.
(§6) The fold selectivity for FXIIa over thrombin for the compounds of the invention has been categorised based on the fold selectivity values, the categories being “+”, “++” and “+++”. The category “+” refers to fold selectivity values less than 10. The category “++” refers to a fold selectivity value of 10 to 100. The category “+++” refers to fold selectivity values greater than 100.

FXa = FXa (Homo sapiens, UniProt P00742); test: Determination of selectivity: FXa inhibition, chromogenic substrate S2765 assay; details: fold selectivity for FXIIa over FXa
Sequence of FXa (P00742 235-488 limits assumed): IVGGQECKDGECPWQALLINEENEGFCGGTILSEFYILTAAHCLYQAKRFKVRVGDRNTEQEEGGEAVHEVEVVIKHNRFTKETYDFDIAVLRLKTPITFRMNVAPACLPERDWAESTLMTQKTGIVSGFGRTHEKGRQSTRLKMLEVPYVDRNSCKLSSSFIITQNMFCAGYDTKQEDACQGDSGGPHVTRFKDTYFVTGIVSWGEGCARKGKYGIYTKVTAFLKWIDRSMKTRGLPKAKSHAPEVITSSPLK
Sequence of FXa (P00742 41-179 partner limits assumed): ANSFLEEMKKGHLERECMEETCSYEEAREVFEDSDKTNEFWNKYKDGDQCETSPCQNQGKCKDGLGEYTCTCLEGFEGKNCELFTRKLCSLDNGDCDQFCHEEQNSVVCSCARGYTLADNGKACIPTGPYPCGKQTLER
Experimental: as §1, §2, §3, §4, §5, §6
The fold selectivity for FXIIa over FXa for the compounds of the invention has been categorised based on the fold selectivity values, the categories being “o”, “oo” and “ooo”. The category “o” refers to fold selectivity values less than 10. The category “oo” refers to a fold selectivity value of 10 to 100. The category “ooo” refers to fold selectivity values greater than 100.

| Compound | Ki (FXIIa) [µM] | Thrombin (human)/FXIIa alpha (human) (thrombin) | FXa (human)/FXIIa alpha (human) (FXa) |
| --- | --- | --- | --- |
| COc1ccc(C[C@@H]2C[C@@H](C(=O)NCc3cc4cnccc4[nH]3)N(C(=O)C3NCCc4cc(Cl)ccc43)C2)cc1 (stereo partly drawn) [Example M00965] | < 0.2 | +++ (fold selectivity values greater than 100) | ∘∘∘ |
| COc1ccc(C[C@@H]2C[C@@H](C(=O)NCc3cc4cnccc4[nH]3)N(C(=O)C3C[C@@H](C(=O)N4CCCC4)CCN3)C2)cc1 (stereo partly drawn) [Example M00966] | < 0.2 | +++ (fold selectivity values greater than 100) | ∘∘∘ |
| COc1ccc(C[C@@H]2C[C@@H](C(=O)NCc3cc4cnccc4[nH]3)N(C(=O)[C@H]3C[C@@H](C(=O)N4CCCC4(C)C)CCN3)C2)cc1 [Example M00967] | < 0.2 | +++ (fold selectivity values greater than 100) | ∘∘∘ |
| Cc1ccc(C[C@@H]2C[C@@H](C(=O)NCc3cc4cnccc4[nH]3)N(C(=O)[C@H](N)CCC(=O)N3CCCC3)C2)cc1 [Example M00968] | < 0.2 | +++ (fold selectivity values greater than 100) | ∘∘∘ |
| N[C@H](CCC(=O)N1CCCC1)C(=O)N1C[C@H](Cc2ccc(C(F)(F)F)cc2)C[C@H]1C(=O)NCc1cc2cnccc2[nH]1 [Example M00969] | < 0.2 | +++ (fold selectivity values greater than 100) | ∘∘∘ |
| O=C(NCc1cc2cnccc2[nH]1)[C@@H]1C[C@@H](Cc2ccc(C(F)(F)F)cc2)CN1C(=O)C1NCCc2cc(Cl)ccc21 (stereo partly drawn) [Example M00970] | 0.2 to 2 | ++ (fold selectivity value of 10 to 100) | ∘∘∘ |
| COc1ccc(C[C@@H]2C[C@@H](C(=O)NCc3cccs3)N(C(=O)[C@H](N)CCC(=O)N3CCCC3)C2)cc1 [Example M00972] | 0.2 to 2 | ++ (fold selectivity value of 10 to 100) | ∘∘ |
| COc1ccc(C[C@@H]2C[C@@H](C(=O)NCc3nc4cnccc4[nH]3)N(C(=O)[C@H](N)CCC(=O)N3CCCC3)C2)cc1 [Example M00973] | > 2 | +++ (fold selectivity values greater than 100) | ∘∘∘ |
| N[C@H](CCc1ccccc1)C(=O)N1CCC[C@H]1C(=O)NCc1ccc2nccn2c1 [Example M05021] | > 2 | + (fold selectivity values less than 10) | ∘∘ |
| COc1cc(CNC(=O)[C@@H]2CCCN2C(=O)[C@H](N)CCc2ccccc2)cnc1CN [Example M05053] | > 2 | + (fold selectivity values less than 10) | ∘∘ |
| NCc1ccc(CNC(=O)[C@@H]2C[C@H](O)CN2C(=O)[C@H](N)CCc2ccccc2)cn1 [Example M05054] | > 2 | ++ (fold selectivity value of 10 to 100) | ∘∘ |
| COc1cc(CNC(=O)[C@@H]2C[C@H](O)CN2C(=O)[C@H](N)CCc2ccccc2)ccc1CN [Example M05056] | 0.2 to 2 | +++ (fold selectivity values greater than 100) | ∘∘∘ |
| COc1cc(CNC(=O)[C@@H]2C[C@H](c3ccccc3)CN2C(=O)[C@H](N)CCc2ccccc2)ccc1CN [Example M05068] | 0.2 to 2 | ++ (fold selectivity value of 10 to 100) | ∘∘∘ |
| COc1cc(CNC(=O)[C@@H]2C[C@H](C)CN2C(=O)[C@H](N)CCc2ccccc2)ccc1CN [Example M05073] | 0.2 to 2 | + (fold selectivity values less than 10) | ∘∘ |
| COc1cc(CNC(=O)[C@@H]2C[C@@H](C)CN2C(=O)[C@H](N)CCc2ccccc2)ccc1CN [Example M05074] | 0.2 to 2 | + (fold selectivity values less than 10) | ∘∘∘ |
| NCc1ccc(CNC(=O)[C@@H]2C[C@H](C3CCCCC3)CN2C(=O)[C@H](N)CCc2ccccc2)cc1 [Example M05076, (2S,4R)-1-((R)-2-Amino-4-phenyl-butyryl)-4-cyclohexyl-pyrrolidine-2-carboxylic acid 4-aminomethyl-benzylamide] | > 2 | ++ (fold selectivity value of 10 to 100) | ∘∘ |
| N#C[C@@H]1C[C@@H](C(=O)NCc2ccc(CN)cc2)N(C(=O)[C@H](N)CCc2ccccc2)C1 [Example M05091, (2S,4R)-1-((R)-2-Amino-4-phenyl-butyryl)-4-cyano-pyrrolidine-2-carboxylic acid 4-aminomethyl-benzylamide] | > 2 | + (fold selectivity values less than 10) | ∘∘ |
| NCc1ncc(CNC(=O)[C@@H]2CCCN2C(=O)[C@H](N)CCc2ccccc2)s1 [Example M05099] | > 2 | + (fold selectivity values less than 10) | ∘∘ |
| Cn1nnc2cc(CNC(=O)[C@@H]3C[C@H](C(F)(F)F)CN3C(=O)[C@H](N)CCc3ccccc3)ccc21 [Example M05102] | > 2 | ++ (fold selectivity value of 10 to 100) | ∘∘ |
| NCc1ccc(CNC(=O)[C@@H]2C[C@@H](Cc3ccc(Cl)cc3)CN2C(=O)[C@H](N)CCc2ccccc2)cc1 [Example M05117] | 0.2 to 2 | ++ (fold selectivity value of 10 to 100) | ∘∘∘ |
| Cn1nnc2cc(CNC(=O)[C@@H]3C[C@@H](c4ccccc4)CN3C(=O)[C@H](N)CCc3ccccc3)ccc21 [Example M05119, (2S,4S)-1-((R)-2-Amino-4-phenyl-butyryl)-4-phenyl-pyrrolidine-2-carboxylic acid (1-methyl-1H-benzotriazol-5-ylmethyl)-amide] | > 2 | ++ (fold selectivity value of 10 to 100) | ∘∘ |
| Nc1cc(CNC(=O)[C@@H]2C[C@@](O)(c3ccccc3)CN2C(=O)[C@H](N)CCc2ccccc2)ccn1 [Example M05125] | 0.2 to 2 | ++ (fold selectivity value of 10 to 100) | ∘∘ |
| Cn1nnc2cc(CNC(=O)[C@@H]3C[C@@](O)(c4ccccc4)CN3C(=O)[C@H](N)CCc3ccccc3)ccc21 [Example M05126] | > 2 | ++ (fold selectivity value of 10 to 100) | ∘∘ |
